# Results as given in US11529323B2 (priority 2017, dated 2022).
# Legend:
# [1] = system: atrogin-1 (FBXO32), MuRF-1 (TRIM63), CEBPO (CEBPD); test: qRT-PCR of atrophy-related genes in gastrocnemius muscle, Study 1; type: in vivo, mouse; details: relative to tumor-bearing controls, GTx-024 15 mg/kg, AR-42 10 mg/kg
# Method: (§1) FIGS. 3A-B show gene expression of multiple cachexia-associated markers in gastrocnemius muscles of individual animals from Study 1 (n=5-6 per group). Expression was determined by qRT-PCR (Geometric Mean±Geometric STD). FIG. 3A contains bar graphs showing genes associated with muscle atrophy. FIG. 3B is a bar graph showing androgen receptor (AR) mRNA expression. […] Statistics all panels: *p<0.05, ***p<0.001, ****p<0.0001 versus tumor-bearing vehicle-treated controls, Dunnett's multiple comparison test. CEBPO, n=4, insufficient sample to analyze all tumor-bearing GTx-024-treated animals.
# qRT-PCR: To generate muscle tissue RNA, 15 mg of gastrocnemius muscle tissue was lysed in 10 volumes of lysis buffer per tissue mass in prefilled 2.0 ml tubes with 3.0 mm zirconium beads (MIDSCl; St. Louis, Mo.). Tubes were loaded into Beadblaster™ 24 (MIDSCl; St. Louis, Mo.) and centrifuged for 5 cycles of 5 seconds with a 30 second pause between cycles. Lysate was collected and RNA was isolated using the mirVana™ miRNA Isolation Kit, with phenol (ThermoFisher; Waltham, Mass.). Samples were treated with DNA-free DNA Removal Kit to eliminate any DNA contamination (Invitrogen, Carlsbad, Calif.). […] As transformed expression data are not normally distributed, statistical differences between treatment groups were determined by one-way ANOVA followed by Dunnett's test on raw delta Ct values.
# androgen receptor (AR) = test: Western blot of androgen receptor in gastrocnemius muscle, Study 1; type: in vivo, mouse; details: irrespective of tumor burden
# Method: as §1
# (§2) Western blots from all studies were performed on gastrocnemius muscle from representative animals lysed by Nonidet P-40 isotonic lysis buffer [50 mM Tris-HCl, pH 7.5, 120 mM NaCl, 1% (v/v) Nonidet P-40, 1 mM EDTA, 50 mM NaF, 40 mM glycerophosphate, and […] each of protease inhibitors (aprotinin, pepstatin, and leupeptin)]. Equivalent amounts of protein from each sample, as determined by Bradford assay (Bio-Rad), was resolved by SDS-PAGE and then transferred (semi-dry) onto immobilon-nitrocellulose membranes (Millipore, Billerica, Mass.). Membranes were washed twice with TBST [Tris-buffered saline (TBS) containing 0.1% Tween 20], blocked with 5% nonfat milk in TBST for 1 hour, and then washed an additional 3 times. […]
# phospho-STAT3 (pSTAT3) = test: Western blot of phospho-STAT3 in gastrocnemius muscle, Study 1; type: in vivo, mouse; details: C-26 tumor-bearing animals
# Source text: FIG. 4A is a table showing multiplex analysis of diverse serum cytokines in terminal samples from Study 2. Presented cytokines are limited to those showing significant differences from tumor-bearing vehicle-treated controls. G-CSF: granulocyte colony-stimulating factor, GM-CSF: granulocyte macrophage colony-stimulating factor, IL-6: interleukin-6, IL-17: interleukin-17, IP-10: interferon gamma-induced protein 10, KC: chemokine (C-X-C motif) ligand 1, LIF: leukemia inhibitory factor, M-CSF: macrophage colony-stimulating factor. FIG. 4B is a bar graph showin ELISA analysis of serum IL-6 levels in terminal samples from Study 2. ND, not detected. FIG. 4C is a plot showing individual animal serum IL-6 values as determined in A plotted against tumor-corrected terminal bodyweights from Study 2 (Pearson's Correlation). […]
# as §2, with “Mass.).” for “Mass.). Membranes were washed twice with TBST [Tris-buffered saline (TBS) containing 0.1% Tween 20], blocked with 5% nonfat milk in TBST for 1 hour, and then washed an additional 3 times.”
# [2] = Sborov et al. 2017; cited from earlier work
Structure (SMILES),"atrogin-1, MuRF-1, or CEBPO expression [1]",AR protein expression in gastrocnemius (androgen receptor (AR)),pSTAT3 abundance in gastrocnemius muscle (phospho-STAT3 (pSTAT3)),well tolerated plasma exposure in humans [2] [µM·h]
"CC(C)[C@H](C(=O)Nc1ccc(C(=O)NO)cc1)c1ccccc1 [AR-42, (S)—N-hydroxy-4-(3-methyl-2-phenylbutanamido)benzamide]",significantly reduced the expression of each atrogene,did not have a marked impact on AR expression,reduced pSTAT3 but not equally in all animals,8.5
"C[C@](O)(COc1ccc(C#N)cc1)C(=O)Nc1ccc(C#N)c(C(F)(F)F)c1 [GTx-024, (2S)-3-(4-cyanophenoxy)-N-(4-cyano-3-(trifluoromethyl)phenyl)-2-hydroxy-2-methylpropanamide]",no significant impact,increased,no apparent effect on pSTAT3,–
